The values that follow are results of earlier work, collected in article PMC8955938, “c-Myc Protein Level Affected by Unsymmetrical Bisacridines Influences Apoptosis and Senescence Induced in HCT116 Colorectal and H460 Lung Cancer Cells” (International Journal of Molecular Sciences, 2022).

On the set-up of the data set: method as in PMID 26485768, PMID 17009029, PMID 21805041, PMID 30894570. Conditions: established in similar conditions; irinotecan colon cancer treatment, cisplatin lung cancer treatment; cited from earlier work.

Structures are written as SMILES.

Take `N.N.[Cl][Pt][Cl]` [cisplatin]: the half-maximal inhibitory concentration (IC50) was around 5 µM.

`CCc1c2c(nc3ccc(OC(=O)N4CCC(N5CCCCC5)CC4)cc13)-c1cc3c(c(=O)n1C2)COC(=O)[C@]3(O)CC` [irinotecan]: the half-maximal inhibitory concentration (IC50) was around 5 µM.
